Measured values as given in PubChem BioAssay (NCI).
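Grown in 96-well plates, cells were treated for 48 hours with each compound at five concentrations. Insufficient inhibition: endpoint recorded as highest concentration tested. GI50 is the concentration that inhibits growth by half. Definition used: TGI = concentration required for complete inhibition of growth.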

Tested on: HS 578T breast
Test: inhibition of tumour cell growth, NCI panel, 48 h

Compound | TGI [µM] | GI50 [µM]
CCNC(=S)N/N=C/c1cc([N+](=O)[O-])ccc1O | > 100 | 
CCOC(=O)c1c2ccccc2n2c(N)c(C(N)=O)nnc12 | 35.5 | 
Cc1cc(N(CCC#N)CCC#N)ccc1/C(N=Nc1ccc(Cl)cc1)=N\NC(=O)c1ccccc1 | 55 | 
CC[C@@]1(O)C(=O)OCc2c1cc1n(c2=O)Cc2c-1nc1ccccc1c2/C=N\NC(=O)CN | > 100 | 
CCc1ccc(CCN2CCCCC2)nc1 | > 100 | 
CCOC(=O)C(NC(C)=O)(Nc1ccc(F)cc1)C(F)(F)F (stereo not drawn) | > 100 | 
CCOc1cc2c(cc1O)/C(=N\OC)C[C@@H]1[C@@H]2CC[C@]2(C)[C@@H](O)CC[C@@H]12 | 0.776 | 
O=C1/C(=C/c2ccc(O)cc2)CC/C1=C\c1ccc(O)cc1 | > 100 | 
CC(C)C1/C(=N/O)CC(c2ccccc2)N(N=O)C1c1ccccc1 (stereo not drawn) | > 100 | 
CC1(C)N=C(/C(Cl)=[N+](/[O-])C(=O)c2ccc(F)cc2)C(C)(C)N1O | 57.1 | 
COC(=O)[C@H](Cc1c[nH]c2ccccc12)NP(=O)(O)OCC1C=CC(n2cc(C)c(=O)[nH]c2=O)O1 (stereo partly drawn) | > 100 | 
COc1cc(/C=C2\S/C(=N/Nc3nc(-c4ccc(Br)cc4)cs3)NC2=O)cc(OC)c1OC | 89.5 | 
COC(=O)[C@H]1CO[C@@H](C(C)(C)C)N1C(=O)N1C=CC(=O)C[C@@H]1C | > 100 | 
CCCNC1=C2CC(C)CC(OC)[C@@H](O)[C@H](C)/C=C(\C)C(OC(N)=O)C(OC)/C=C\C=C(/C)C(=O)NC(=CC1=O)C2=O (stereo partly drawn) | 36.8 | 0.625
Clc1ccc(/C=C/c2nc3ccccc3s2)cc1Cl | 80.8 | 
CCC1(O)CC2CC(=O)OC2C1O (stereo not drawn) | > 100 | 
Cc1ccc(SCC(CSCCO)OCn2cnc3c2NC(N)=NC32OCCO2)cc1 (stereo not drawn) | > 100 | 
C(/c1ccco1)=c1/nc(-c2ccccc2)n2c1nc1ccccc12 | > 100 | 
COC(=O)C1CCC(=O)N1C(c1ccccc1)c1ccc(OC)c(OC)c1 (stereo not drawn) | > 100 | 
Oc1cccc2c(Cl)ccnc12 | > 73.9 | 
Cc1cccc(/C=N/NC(=S)Nc2ccccc2)n1 | > 100 | 
N#CC1=C(N)N(c2ccccc2)C(c2ccco2)C1(C#N)C#N (stereo not drawn) | > 100 | 
NC(=O)C(c1ccccc1)N1OC2C(=O)N(c3ccccc3)C(=O)C2C1c1c2ccccc2c(Cl)c2ccccc12 (stereo not drawn) | > 100 | 

Compound | TGI [µM] | GI50 [µM]
CC(C)c1ccc(/C=C2/C=C(c3ccc4ccccc4c3)OC2=O)cc1 | > 100 | 
COc1ccc(/C=C2\CCC(C)C3=C2NC(=S)NC3c2ccc(OC)c(OC)c2)cc1OC (stereo not drawn) | > 31.6 | 
CC[C@@]1(C[C@H]2C[C@@]3(C(=O)OC)c4[nH]c5ccccc5c4CCN3C2=O)COC2(CCCCC2)O1 | 87 | 
COc1ccc(C(OCC2OC(n3cc(C)c(=O)[nH]c3=O)CC2n2cc(Cn3cc(I)c(=O)[nH]c3=O)nn2)(c2ccccc2)c2ccccc2)cc1 (stereo not drawn) | > 100 | 
O=S1(=O)NC(=NCc2c[nH]c3ccccc23)N(c2ccccc2)c2ccncc21 | 92.7 | 
C=C(C1=CC(=O)C(C)(C)O1)[C@@H]1CC=C([C@@H]2CC[C@H]3[C@@]2(C)CC[C@H]2C(C)(C)C(=O)[C@H](O)C[C@]32C)[C@H](O)O1 | 13.1 | 
CC1=CC2C(O1)C1C(=O)C=CC(=O)C1=CC2[N+](=O)[O-] (stereo not drawn) | > 58 | 
C=C(Br)C(C)(Cl)CCC(Br)C(C)(C)Cl (stereo not drawn) | > 100 | 
O=C(CCC(=O)c1ccc(Cl)cc1)NO | > 100 | 
COc1c(C)c(C/C=C(\C)CCCCO[Si](c2ccccc2)(c2ccccc2)C(C)(C)C)c(OC)c(OC)c1OC | > 100 | 
CN1CCN([C@H]2C[C@H]3[C@@H]4CC=C5C[C@@H](O)CC[C@]5(C)[C@H]4CC[C@]3(C)C2=O)CC1 | > 100 | 
COc1ccc(C2c3cc4c(cc3OC(NNS(=O)(=O)c3ccc(C)cc3)C2C)OCO4)cc1 (stereo not drawn) | > 100 | 
C[C@@]12C[C@@H](c3ccccc3O1)N1CCCCSC1=N2 | > 100 | 
CCOC(=O)Nn1c(C)nnc1-c1ccccc1 | > 100 | 
Cc1cn(C2CC(n3cc(Cn4cc(I)c(=O)[nH]c4=O)nn3)C(CO)O2)c(=O)[nH]c1=O (stereo not drawn) | > 100 | 
CNC(=O)OCC1=C(COC(=O)NC)C(C)N(c2ccc(OC)cc2)C1 (stereo not drawn) | > 100 | 
c1ccc(N=C2SC3=Nc4cccc5cccc(c45)N3C2=Nc2ccccc2)cc1 | > 100 | 
Cc1nc(C(N)=S)sc1/C(CC(=O)C(=O)Nc1cccc2ccc(O)cc12)=N\NC(=O)c1ccncc1 | > 100 | 
Cc1cc(O)c2c(=O)c3ccccc3[nH]c2c1 | 84.6 | 
O=C(O)c1cccc2c1/C(=N/Nc1ccccc1)CC2 | > 100 | 
Nc1cccc2cc(Cl)cnc12 | > 100 | 
CC1=C(C)[C@@]2(C)O[C@@]2(C)O[C@@]2(C)O[C@@]12C | > 100 | 

Tested on: HT29 colon
Test: inhibition of tumour cell growth, NCI panel, 48 h

Compound | TGI [µM]
O=c1[nH][nH]c(=O)n1Cc1ccccc1Cn1c(=O)[nH][nH]c1=O | > 100
CCNC(=S)N/N=C/c1cc([N+](=O)[O-])ccc1O | > 100
CCOC(=O)c1c2ccccc2n2c(N)c(C(N)=O)nnc12 | > 100
Cc1cc(N(CCC#N)CCC#N)ccc1/C(N=Nc1ccc(Cl)cc1)=N\NC(=O)c1ccccc1 | 47.6
CC[C@@]1(O)C(=O)OCc2c1cc1n(c2=O)Cc2c-1nc1ccccc1c2/C=N\NC(=O)CN | > 49.7
CCc1ccc(CCN2CCCCC2)nc1 | > 100
O=C(NNC(=O)c1ccccc1SSc1ccccc1C(=O)NNC(=O)c1ccccc1S)c1ccccc1S | > 95.2
CCOC(=O)C(NC(C)=O)(Nc1ccc(F)cc1)C(F)(F)F (stereo not drawn) | > 100
CCOc1cc2c(cc1O)/C(=N\OC)C[C@@H]1[C@@H]2CC[C@]2(C)[C@@H](O)CC[C@@H]12 | 15.3
O=C1/C(=C/c2ccc(O)cc2)CC/C1=C\c1ccc(O)cc1 | > 100
CC(C)C1/C(=N/O)CC(c2ccccc2)N(N=O)C1c1ccccc1 (stereo not drawn) | 39
CC1(C)N=C(/C(Cl)=[N+](/[O-])C(=O)c2ccc(F)cc2)C(C)(C)N1O | 41
COC(=O)[C@H](Cc1c[nH]c2ccccc12)NP(=O)(O)OCC1C=CC(n2cc(C)c(=O)[nH]c2=O)O1 (stereo partly drawn) | > 100
COc1cc(/C=C2\S/C(=N/Nc3nc(-c4ccc(Br)cc4)cs3)NC2=O)cc(OC)c1OC | 32.5
COC(=O)[C@H]1CO[C@@H](C(C)(C)C)N1C(=O)N1C=CC(=O)C[C@@H]1C | > 100
CCCNC1=C2CC(C)CC(OC)[C@@H](O)[C@H](C)/C=C(\C)C(OC(N)=O)C(OC)/C=C\C=C(/C)C(=O)NC(=CC1=O)C2=O (stereo partly drawn) | 10.9
Clc1ccc(/C=C/c2nc3ccccc3s2)cc1Cl | > 100
CCC1(O)CC2CC(=O)OC2C1O (stereo not drawn) | > 100
Cc1ccc(SCC(CSCCO)OCn2cnc3c2NC(N)=NC32OCCO2)cc1 (stereo not drawn) | > 100
C(/c1ccco1)=c1/nc(-c2ccccc2)n2c1nc1ccccc12 | > 100
COC(=O)C1CCC(=O)N1C(c1ccccc1)c1ccc(OC)c(OC)c1 (stereo not drawn) | > 100
Oc1cccc2c(Cl)ccnc12 | 33.6
Cc1cccc(/C=N/NC(=S)Nc2ccccc2)n1 | > 100
N#CC1=C(N)N(c2ccccc2)C(c2ccco2)C1(C#N)C#N (stereo not drawn) | 37.1

Compound | TGI [µM]
NC(=O)C(c1ccccc1)N1OC2C(=O)N(c3ccccc3)C(=O)C2C1c1c2ccccc2c(Cl)c2ccccc12 (stereo not drawn) | > 100
CC(C)c1ccc(/C=C2/C=C(c3ccc4ccccc4c3)OC2=O)cc1 | > 100
COc1ccc(/C=C2\CCC(C)C3=C2NC(=S)NC3c2ccc(OC)c(OC)c2)cc1OC (stereo not drawn) | > 100
CC[C@@]1(C[C@H]2C[C@@]3(C(=O)OC)c4[nH]c5ccccc5c4CCN3C2=O)COC2(CCCCC2)O1 | > 100
COc1ccc2c(=O)c(O)c(-c3ccc(OC)c(OC)c3)oc2c1 | > 100
COc1ccc(C(OCC2OC(n3cc(C)c(=O)[nH]c3=O)CC2n2cc(Cn3cc(I)c(=O)[nH]c3=O)nn2)(c2ccccc2)c2ccccc2)cc1 (stereo not drawn) | > 100
O=S1(=O)NC(=NCc2c[nH]c3ccccc23)N(c2ccccc2)c2ccncc21 | > 100
COc1ccc(CNc2nc(NCc3ccc(OC)c(OC)c3)nc(NC3CCCCC3)n2)cc1 | > 100
C=C(C1=CC(=O)C(C)(C)O1)[C@@H]1CC=C([C@@H]2CC[C@H]3[C@@]2(C)CC[C@H]2C(C)(C)C(=O)[C@H](O)C[C@]32C)[C@H](O)O1 | 3.48
CC1=CC2C(O1)C1C(=O)C=CC(=O)C1=CC2[N+](=O)[O-] (stereo not drawn) | 45.7
C=C(Br)C(C)(Cl)CCC(Br)C(C)(C)Cl (stereo not drawn) | > 100
O=C(CCC(=O)c1ccc(Cl)cc1)NO | > 100
COc1c(C)c(C/C=C(\C)CCCCO[Si](c2ccccc2)(c2ccccc2)C(C)(C)C)c(OC)c(OC)c1OC | > 46.4
CN1CCN([C@H]2C[C@H]3[C@@H]4CC=C5C[C@@H](O)CC[C@]5(C)[C@H]4CC[C@]3(C)C2=O)CC1 | > 100
COc1ccc(C2c3cc4c(cc3OC(NNS(=O)(=O)c3ccc(C)cc3)C2C)OCO4)cc1 (stereo not drawn) | > 100
C[C@@]12C[C@@H](c3ccccc3O1)N1CCCCSC1=N2 | > 100
CCOC(=O)Nn1c(C)nnc1-c1ccccc1 | > 100
CNC(=O)OCC1=C(COC(=O)NC)C(C)N(c2ccc(OC)cc2)C1 (stereo not drawn) | > 100
c1ccc(N=C2SC3=Nc4cccc5cccc(c45)N3C2=Nc2ccccc2)cc1 | > 100
Cc1nc(C(N)=S)sc1/C(CC(=O)C(=O)Nc1cccc2ccc(O)cc12)=N\NC(=O)c1ccncc1 | > 100
Cc1cc(O)c2c(=O)c3ccccc3[nH]c2c1 | 38
Cc1cn(C2CC(N(O)C(N)=O)C(CO)O2)c(=O)[nH]c1=O (stereo not drawn) | > 100
O=C(O)c1cccc2c1/C(=N/Nc1ccccc1)CC2 | > 100
